Laboratory results reported in ChEMBL document CHEMBL1201862, “PubChem BioAssay data set” (2004).
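Test compounds were applied to cells in 96-well plates for 48 hours at 5 doses. GI50 = concentration required for 50% inhibition of growth.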 Active and inactive are the calls of the source. Rule as the data show it: active = GI50 up to about 1.1 µM and inactive = higher.

Key:
Assay in all cases: inhibition of tumour cell growth, NCI panel, 48 h
MOLT-4 = test system: MOLT-4
UACC-257 = test system: UACC-257
COLO 205 = test system: COLO 205
CCRF-CEM = test system: CCRF-CEM
M19-MEL = test system: M19-MEL
SF-539 = test system: SF-539
TK-10 = test system: TK-10
SW-620 = test system: SW-620
M14 = test system: M14
SNB-78 = test system: SNB-78
SK-MEL-2 = test system: SK-MEL-2
KM12 = test system: KM12
SF-268 = test system: SF-268
U-251 = test system: U-251
IGROV-1 = test system: IGROV-1
OVCAR-5 = test system: OVCAR-5
SNB-75 = test system: SNB-75
NCI-H226 = test system: NCI-H226

Measured: GI50

Cc1c(C(=O)O)oc2ccc([N+](=O)[O-])cc12
inactive: MOLT-4 > 10 µM | UACC-257 > 100 µM | COLO 205 > 100 µM | CCRF-CEM > 100 µM | M19-MEL > 100 µM | SF-539 > 100 µM | TK-10 > 100 µM | SW-620 > 100 µM | M14 > 100 µM | SNB-78 > 100 µM | SK-MEL-2 > 100 µM | KM12 > 100 µM | SF-268 > 100 µM | U-251 > 100 µM | IGROV-1 > 100 µM | OVCAR-5 > 100 µM

C1=C2/CC[C@H](Sc3ccccc3)[C@H]2C2(CCCCC/1)OCCO2
inactive: UACC-257 20.2 µM | COLO 205 19.5 µM | CCRF-CEM 24.5 µM | M19-MEL 25.1 µM | SF-539 40.4 µM | TK-10 > 100 µM | SW-620 29 µM | M14 27.9 µM | SNB-78 94 µM | SK-MEL-2 16.9 µM | KM12 29.9 µM | SF-268 82.8 µM | SNB-75 27.9 µM | U-251 21.8 µM | IGROV-1 54.7 µM | OVCAR-5 29.5 µM

CC(=O)c1ccc(NC(=O)/C(CC(=O)c2sc(-c3cccnc3)nc2C)=N/NC(N)=O)cc1
inactive: MOLT-4 19.3 µM | UACC-257 > 10 µM | COLO 205 18.2 µM | CCRF-CEM 21.6 µM | M19-MEL > 100 µM | SF-539 > 10 µM | TK-10 > 10 µM | SW-620 > 100 µM | M14 > 100 µM | SNB-78 > 100 µM | SK-MEL-2 > 100 µM | KM12 > 100 µM | SF-268 38.7 µM | NCI-H226 25.9 µM | U-251 68.1 µM | IGROV-1 > 100 µM | OVCAR-5 45.1 µM

Cc1cccc(NC(=O)CC(=O)N2N=C(N(CCC#N)c3ccc(Cl)cc3)CC2c2ccccc2)c1 (stereo not drawn)
inactive: MOLT-4 > 100 µM | UACC-257 > 100 µM | COLO 205 > 100 µM | CCRF-CEM > 100 µM | M19-MEL > 100 µM | SF-539 > 100 µM | TK-10 > 100 µM | SW-620 > 100 µM | M14 > 100 µM | SNB-78 > 100 µM | KM12 > 100 µM | SF-268 > 100 µM | SNB-75 > 100 µM | U-251 > 100 µM | IGROV-1 > 100 µM | OVCAR-5 > 100 µM

COc1ccc2c(c1)[n+]([O-])c(C(=O)CC(=O)C(=O)Nc1cccc(C)c1C)c(C)[n+]2[O-]
inactive: MOLT-4 > 100 µM | UACC-257 > 100 µM | CCRF-CEM > 100 µM | M19-MEL > 100 µM | SF-539 > 100 µM | TK-10 > 100 µM | SW-620 > 100 µM | M14 > 100 µM | SNB-78 > 100 µM | SK-MEL-2 > 100 µM | KM12 > 100 µM | SF-268 > 100 µM | NCI-H226 > 100 µM | U-251 > 100 µM | IGROV-1 > 100 µM | OVCAR-5 > 100 µM

CCOC(=O)C(=O)Nc1ccccc1C(C)C
inactive: MOLT-4 > 100 µM | UACC-257 > 100 µM | COLO 205 > 100 µM | CCRF-CEM > 100 µM | M19-MEL > 100 µM | SF-539 > 100 µM | TK-10 > 100 µM | SW-620 > 100 µM | M14 > 100 µM | SK-MEL-2 > 100 µM | KM12 > 100 µM | SF-268 > 100 µM | SNB-75 > 100 µM | NCI-H226 > 100 µM | U-251 > 100 µM | IGROV-1 > 100 µM | OVCAR-5 > 100 µM
